# pIC50: −log10 of the molar value.
# How the values were obtained:
# [1] = target: DGKζ (Homo sapiens (Human), UniProt Q13574); experiment: Biochemical DGK IC50 assay, DGKζ ADP-Glo assay; settings: 0.5 nM enzyme, 140 μM ATP, 80 μM DAG; read-out: DGKζ ADP-Glo assay IC50
# Method in brief: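 ADP formation measured by ADP-Glo luminescence, with test compounds at final 1.55–10000 nM or 23.3–150000 nM. Enzyme: purified full-length human DGKζ from Sf9 insect cells; substrate: DAG/PS micelles in 25 mM HEPES pH 7.0, 0.5 mM EDTA, octyl glucoside.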
# [2] = target: DGKα (Homo sapiens (Human), UniProt P23743); experiment: Biochemical DGK IC50 assay, DGKα ADP-Glo assay; settings: 7.5 nM enzyme, 140 μM ATP, 80 μM DAG
# Sequence of DGKα (P23743 whole entry): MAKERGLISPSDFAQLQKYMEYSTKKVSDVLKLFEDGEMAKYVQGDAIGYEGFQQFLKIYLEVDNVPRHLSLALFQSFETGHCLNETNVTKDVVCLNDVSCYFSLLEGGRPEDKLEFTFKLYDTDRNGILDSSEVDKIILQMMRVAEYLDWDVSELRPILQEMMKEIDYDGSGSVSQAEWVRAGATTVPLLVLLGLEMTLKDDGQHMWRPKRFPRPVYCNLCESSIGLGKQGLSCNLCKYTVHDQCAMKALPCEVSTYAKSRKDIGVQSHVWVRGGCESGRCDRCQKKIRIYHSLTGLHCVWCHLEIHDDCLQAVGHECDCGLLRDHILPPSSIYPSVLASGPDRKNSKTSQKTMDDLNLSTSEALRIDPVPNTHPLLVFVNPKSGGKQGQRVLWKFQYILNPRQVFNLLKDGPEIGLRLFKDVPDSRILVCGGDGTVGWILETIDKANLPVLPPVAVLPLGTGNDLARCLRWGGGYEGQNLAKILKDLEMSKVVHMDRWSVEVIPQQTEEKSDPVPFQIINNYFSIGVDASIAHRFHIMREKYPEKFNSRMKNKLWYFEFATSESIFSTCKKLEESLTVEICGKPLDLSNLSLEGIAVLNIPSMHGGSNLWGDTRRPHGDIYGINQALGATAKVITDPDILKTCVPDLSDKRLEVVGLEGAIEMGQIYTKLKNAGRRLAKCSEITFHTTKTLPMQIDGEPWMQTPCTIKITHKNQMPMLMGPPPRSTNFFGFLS
# Method in brief: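 Compounds at final 1.55˜10000 nM or 23.3˜150000 nM were tested against full-length DGKα. Substrate was lipid micelles of DAG and PS resuspended in 25 mM HEPES pH 7.0 with 0.5 mM EDTA and 160 mM octyl β-D-glucopyranoside. ADP formed was detected by ADP-Glo.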
# Sequence of DGKζ (Q13574 other isoform, or with tags, fused parts or gaps): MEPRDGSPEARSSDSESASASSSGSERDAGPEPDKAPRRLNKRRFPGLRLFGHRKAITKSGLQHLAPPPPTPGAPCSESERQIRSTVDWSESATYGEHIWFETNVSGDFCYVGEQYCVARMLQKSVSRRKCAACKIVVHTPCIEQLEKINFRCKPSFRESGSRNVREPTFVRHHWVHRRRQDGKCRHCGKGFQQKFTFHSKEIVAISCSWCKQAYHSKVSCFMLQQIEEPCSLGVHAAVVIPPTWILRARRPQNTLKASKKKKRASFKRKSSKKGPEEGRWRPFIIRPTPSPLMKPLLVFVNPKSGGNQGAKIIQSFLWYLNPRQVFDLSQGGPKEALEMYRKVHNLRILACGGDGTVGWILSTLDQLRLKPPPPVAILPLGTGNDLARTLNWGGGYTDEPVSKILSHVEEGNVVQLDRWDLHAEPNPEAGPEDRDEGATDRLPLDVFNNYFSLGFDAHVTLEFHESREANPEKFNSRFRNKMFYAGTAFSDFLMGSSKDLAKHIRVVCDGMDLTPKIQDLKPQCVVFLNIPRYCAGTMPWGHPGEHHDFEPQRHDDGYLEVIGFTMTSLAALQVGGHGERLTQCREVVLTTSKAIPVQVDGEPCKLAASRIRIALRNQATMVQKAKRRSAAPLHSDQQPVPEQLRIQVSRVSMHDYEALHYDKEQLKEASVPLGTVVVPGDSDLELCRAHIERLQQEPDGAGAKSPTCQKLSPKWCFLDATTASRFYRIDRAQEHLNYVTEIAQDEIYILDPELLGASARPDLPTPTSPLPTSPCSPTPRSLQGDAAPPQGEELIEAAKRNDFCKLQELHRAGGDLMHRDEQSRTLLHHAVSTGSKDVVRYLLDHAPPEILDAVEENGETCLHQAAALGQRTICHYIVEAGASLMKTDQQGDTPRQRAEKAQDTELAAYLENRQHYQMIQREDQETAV
pIC50 [1],pIC50 [2],SMILES
6.72,7.49,"CC[C@H]1CN(C(C)c2ccc(F)nc2)[C@H](CC)CN1c1cc(=O)n(C)c2cn(CC#N)nc12 (single isomer, unassigned) [Compound A353a]"
7.82,5.09,"CC[C@H]1CN(C(C)c2cnn(CC)c2C(F)(F)F)[C@H](CC)CN1c1cc(=O)n(C)c2cn(CC#N)nc12 (single isomer, unassigned) [Compound A119a]"
7.08,7.43,"CC[C@H]1CN(C(C)c2ccc(C)cc2)[C@H](CC)CN1c1cc(=O)n(C)c2cn(CC#N)nc12 (single isomer, unassigned) [Compound A127a]"
5.51,5.07,"CC[C@H]1CN(C(C)c2cn(C)nc2C(F)(F)F)[C@H](CC)CN1c1cc(=O)n(C)c2cn(CC#N)nc12 (stereo partly drawn) [Compound A232, 2-(7-((2S,5R)-2,5-diethyl-4-(1-(1-methyl-3-(trifluoromethyl)-1H-pyrazol-4-yl)ethyl)piperazin-1-yl)-4-methyl-5-oxo-4,5-dihydro-2H-pyrazolo[4,3-b]pyridin-2-yl)acetonitrile]"
8.23,8.05,"CC[C@H]1CN(C(C)c2ccc(F)cc2F)[C@H](CC)CN1c1cc(=O)n(C)c2cn(CC#N)nc12 (single isomer, unassigned) [Compound A132a]"
6.59,5.91,"CC#CCn1cc2c(n1)c(N1C[C@@H](CC)N(C(C)c3ccc(F)cc3C(F)(F)F)C[C@@H]1CC)cc(=O)n2C (single isomer, unassigned) [Compound A238b]"
7.37,< 5.00,"CC[C@H]1CN(C(C)c2c(F)cc(F)cc2OC)[C@H](CC)CN1c1cc(=O)n(C)c2cn(CC#N)nc12 (single isomer, unassigned) [Compound A201a]"
7.85,4.69,"CC[C@H]1CN(C(C)c2ccc(F)cc2C(F)F)[C@H](CC)CN1c1cc(=O)n(C)c2cn(CC#N)nc12 (single isomer, unassigned) [Compound A172b]"
6.97,6.68,"CC[C@H]1CN(C(C)c2ccc(C(F)(F)F)cc2)[C@H](CC)CN1c1cc(=O)n(C)c2cn(CC#N)nc12 (mixture of isomers) [Compound A103, 2-(7-((2S,5R)-2,5-diethyl-4-(1-(4-(trifluoromethyl)phenyl)ethyl)piperazin-1-yl)-4-methyl-5-oxo-4,5-dihydro-2H-pyrazolo[4,3-b]pyridin-2-yl)acetonitrile]"
6.26,< 5.00,"CC[C@H]1CN(C(C)c2ccc(F)cc2OC)[C@H](CC)CN1c1cc(=O)n(CCO)c2cn(CC#N)nc12 (single isomer, unassigned) [Compound A153b]"
< 5.00,6.05,"CC#CCn1cc2c(n1)c(N1C[C@@H](CC)N(C(C)c3ccc(C(F)(F)F)cc3F)C[C@@H]1CC)cc(=O)n2C (single isomer, unassigned) [Compound A334b]"
5.27,< 5.00,CC[C@H]1CN(C(C)c2cnc(C)cc2C(F)(F)F)[C@H](CC)CN1c1cc(=O)n(C)c2cn(CC#N)nc12 (some centres unmarked) [Compound A235]
6.94,5.61,"CC[C@H]1CN(C(C)c2ccc(F)cc2COC)[C@H](CC)CN1c1cc(=O)n(C)c2cn(CC#N)nc12 (stereo partly drawn) [Compound A79, 2-(7-((2S,5R)-2,5-diethyl-4-(1-(4-fluoro-2-(methoxymethyl)phenyl)ethyl)piperazin-1-yl)-4-methyl-5-oxo-4,5-dihydro-2H-pyrazolo[4,3-b]pyridin-2-yl)acetonitrile]"
6.59,6.89,"CC[C@H]1CN(C(C)c2ncc(C(F)(F)F)cc2F)[C@H](CC)CN1c1cc(=O)n(C)c2cn(CC#N)nc12 (single isomer, unassigned) [Compound A354b]"
6.84,5.24,CC[C@H]1CN(C(C)c2ccc(F)cc2Cl)[C@H](CC)CN1c1cc(=O)n(C)c2cn(CC#N)nc12 (some centres unmarked) [Compound A116]
6.89,8.00,CC[C@H]1CN(C(C)c2ccc(F)cc2)[C@H](CC)CN1c1cc(=O)n(C)c2cn(CC#N)nc12 (some centres unmarked) [Compound A67]

# Second part, the molecule before the results:
SMILES,pIC50 [1],pIC50 [2]
CC[C@H]1CN(C(C)c2cccc(=O)n2CC)[C@H](CC)CN1c1cc(=O)n(C)c2cn(CC#N)nc12 (some centres unmarked) [Compound A207],5.39,< 5.00
CC[C@H]1CN(C(C)c2cc3ccccc3n2CC)[C@H](CC)CN1c1cc(=O)n(C)c2cn(CC#N)nc12 (some centres unmarked) [Compound A176],7.03,5.25
"CC[C@H]1CN(C(C)c2nc3ccccc3s2)[C@H](CC)CN1c1cc(=O)n(C)c2cn(CC#N)nc12 (stereo partly drawn) [Compound A52, 2-(7-((2S,5R)-4-(1-(benzo[d]thiazol-2-yl)ethyl)-2,5-diethylpiperazin-1-yl)-4-methyl-5-oxo-4,5-dihydro-2H-pyrazolo[4,3-b]pyridin-2-yl)acetonitrile]",7.14,7.51
"CC#CCn1cc2c(n1)c(N1C[C@@H](CC)N(C(C)c3cnc4ccccc4n3)C[C@@H]1C)cc(=O)n2C (single isomer, unassigned) [Compound A394b]",6.90,7.52
"CC(c1ccc2nccnc2c1)N1C[C@H](C)N(c2cc(=O)n(C)c3c[nH]nc23)C[C@H]1C (stereo partly drawn) [Compound A1, 7-((2S,5R)-2,5-dimethyl-4-(1-(quinoxalin-6-yl)ethyl)piperazin-1-yl)-4-methyl-2,4-dihydro-5H-pyrazolo[4,3-b]pyridin-5-one]",< 3.82,5.74
COc1c(C(C)N2C[C@H](C)N(c3cc(=O)n(C)c4cn(CC#N)nc34)C[C@H]2C)ccc(F)c1F (some centres unmarked) [Compound A273],5.26,< 5.00
CC[C@H]1CN(C(C)c2ccc(C)c(C)n2)[C@H](CC)CN1c1cc(=O)n(C)c2cn(CC#N)nc12 (some centres unmarked) [Compound A363],7.26,6.78
"CC(c1ccc(F)cc1CC#N)N1C[C@H](C)N(c2cc(=O)n(C)c3cn(CC#N)nc23)C[C@H]1C (single isomer, unassigned) [Compound A287a]",5.01,< 5.00
CC(c1ccc2nccnc2c1)N1CCN(c2cc(=O)n(C)c3cn(CC#N)nc23)C[C@@H]1C (some centres unmarked) [Compound A178],5.16,< 5.00
"CC[C@H]1CN(C(C)c2cc3cnccc3cn2)[C@H](CC)CN1c1cc(=O)n(C)c2cn(CC#N)nc12 (single isomer, unassigned) [Compound A368b]",6.42,7.04
"COC(C)c1cc(F)ccc1C(C)N1C[C@H](C)N(c2cc(=O)n(C)c3cn(CC#N)nc23)C[C@H]1C (single isomer, unassigned) [Compound A286b]",7.77,4.29
"C[C@@H]1CN(c2c(C#N)c(=O)n(C)c3cn(CC#N)nc23)[C@@H](C)CN1[C@@H](C)c1ccc2nccnc2c1 [Compound A134, 2-(cyanomethyl)-7-((2S,5R)-2,5-dimethyl-4-((S)-1-(quinoxalin-6-yl)ethyl)piperazin-1-yl)-4-methyl-5-oxo-4,5-dihydro-2H-pyrazolo[4,3-b]pyridine-6-carbonitrile]",7.46,5.71
C[C@@H](c1ccc2nccnc2c1)N1CC2CCC1CN2c1cc(=O)n(C)c2cn(CC#N)nc12 (some centres unmarked) [Compound A125a],< 5.00,< 5.00
"CC[C@@H]1CN(c2cc(=O)n(C)c3cn(CC#N)nc23)[C@@H](C)CN1C(C)c1ccc2nccnc2c1 (single isomer, unassigned) [Compound A97a]",8.07,5.47
CC[C@H]1CN(C(C)c2ccc3nccnc3c2)[C@H](CC)CN1c1cc(=O)n(CC2CC2)c2cn(CC#N)nc12 (some centres unmarked) [Compound A167],5.99,< 5.00
"CC[C@H]1CN([C@@H](C)c2ccc3nccnc3c2)[C@H](CC)CN1c1cc(=O)[nH]c2cn(CC#N)nc12 [Compound A129, 2-(7-((2S,5R)-2,5-diethyl-4-((S)-1-(quinoxalin-6-yl)ethyl)piperazin-1-yl)-5-oxo-4,5-dihydro-2H-pyrazolo[4,3-b]pyridin-2-yl)acetonitrile]",7.48,5.63
Cc1ccc(C(c2ccc(C)cc2)N2C[C@H](C)N(c3cc(=O)n(C)c4cn(CC#N)nc34)C[C@H]2C)cc1 [Compound A333],6.68,4.97
CC[C@H]1CN(C(C)c2cnn(C)c2C(F)F)[C@H](CC)CN1c1cc(=O)n(C)c2cn(CC#N)nc12 (some centres unmarked) [Compound A234],6.80,5.13
"CC[C@H]1CN(C(C)c2ccc3nccnc3c2)[C@H](CC)CN1c1cc(=O)n(C)c2cn(CC#N)nc12 (single isomer, unassigned) [Compound A28a]",8.12,6.31
"C=CCCn1cc2c(n1)c(N1C[C@@H](C)N(C(C)c3ccc4nccnc4c3)C[C@@H]1C)cc(=O)n2C (single isomer, unassigned) [Compound A300, 2-(but-3-en-1-yl)-7-((2S,5R)-2,5-dimethyl-4-((S)-1-(quinoxalin-6-yl)ethyl)piperazin-1-yl)-4-methyl-2,4-dihydro-5H-pyrazolo[4,3-b]pyridin-5-one, or 2-(but-3-en-1-yl)-7-((2S,5R)-2,5-dimethyl-4-((R)-1-(quinoxalin-6-yl)ethyl)piperazin-1-yl)-4-methyl-2,4-dihydro-5H-pyrazolo[4,3-b]pyridin-5-one]",6.28,4.27
"COc1cnc2ccc(C(C)N3C[C@H](C)N(c4cc(=O)n(C)c5cn(CC#N)nc45)C[C@H]3C)cc2n1 (stereo partly drawn) [Compound A270, 2-(7-((2S,5R)-4-(1-(3-methoxyquinoxalin-6-yl)ethyl)-2,5-dimethylpiperazin-1-yl)-4-methyl-5-oxo-4,5-dihydro-2H-pyrazolo[4,3-b]pyridin-2-yl)acetonitrile]",6.77,4.40
